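Growth conditions: 96-well plates. Treatment: test compound, 48 hours, 5 concentrations. Analysis: linear interpolation between bracketing concentrations; unreached endpoints set to highest concentration. Definition used: TGI = concentration required for complete inhibition of growth.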
What was measured:
Test in all cases: growth of human tumour cells (NCI), 48 h
RXF 393 renal = system: RXF 393 renal
SK-MEL-2 melanoma = system: SK-MEL-2 melanoma
HOP-62 NSCLC = system: HOP-62 NSCLC
A498 renal = system: A498 renal
CAKI-1 renal = system: CAKI-1 renal
SK-MEL-28 melanoma = system: SK-MEL-28 melanoma
SF-295 CNS = system: SF-295 CNS
MALME-3M melanoma = system: MALME-3M melanoma
HCC-2998 colon = system: HCC-2998 colon
786-0 renal = system: 786-0 renal

Compound	TGI (RXF 393 renal)	TGI (SK-MEL-2 melanoma)	TGI (HOP-62 NSCLC)	TGI (A498 renal)	TGI (CAKI-1 renal)	TGI (SK-MEL-28 melanoma)	TGI (SF-295 CNS)	TGI (MALME-3M melanoma)	TGI (HCC-2998 colon)	TGI (786-0 renal)
C1CN(C23OC4(N5CCOCC5)C5C6CC(C7C6C4C72)C53)CCO1 (centres undefined)	> 100 µM	> 100 µM	> 100 µM	> 100 µM	> 100 µM	> 100 µM	> 100 µM	> 100 µM	> 100 µM	> 100 µM
CCOC(=O)C1C2C1C1C(C(=O)OCC)C21 (centres undefined)	> 100 µM	> 100 µM	> 100 µM	> 100 µM	> 100 µM	> 100 µM	> 100 µM	> 100 µM	> 100 µM	> 100 µM
O=C(O)c1cc2c(cc1CC(Cc1ccccc1)C(=O)O)CCC2 (centres undefined)	> 100 µM	> 100 µM	> 100 µM	> 100 µM	> 100 µM	> 100 µM	> 100 µM	> 100 µM	> 100 µM	> 100 µM
CCCS(=O)OC1C(C2COC(C)(C)O2)OC2OC(C)(C)OC21 (centres undefined)	25.5 µM	37.4 µM	32.5 µM	97 µM	28 µM	32.7 µM	36.1 µM	18 µM	32.6 µM	27.8 µM
O=c1c2cc(Cl)ccc2n2nnc3ccc(NCCNCCO)c1c32	3.45 µM	5.01 µM	3.03 µM	2.86 µM	4.97 µM	3.26 µM	1.38 µM	5.67 µM	2.7 µM	2.02 µM
Oc1cc(Br)cc2cc(Br)cnc12	10.9 µM	–	> 100 µM	24.2 µM	42.6 µM	> 100 µM	28 µM	58.2 µM	57.3 µM	71.1 µM
NC(Cc1ccccc1)C(=O)O (centres undefined)	> 100 µM	> 100 µM	> 100 µM	> 100 µM	> 100 µM	> 100 µM	> 100 µM	> 100 µM	> 100 µM	> 100 µM
Cc1ccc2c(=O)c3c(O)c4c(cc3n(C)c2c1)OC(C)(C)C=C4	> 10 µM	> 10 µM	> 10 µM	> 10 µM	> 10 µM	> 10 µM	> 10 µM	> 10 µM	> 10 µM	> 10 µM
CCCCCCCCCCCOCCC1C(C(C)OCCN2CCCC2)OC2OC(C)(C)OC21 (centres undefined)	7.3 µM	3.51 µM	4.38 µM	28.5 µM	6.52 µM	3.08 µM	5.71 µM	3.08 µM	4.83 µM	5.88 µM
COC(=O)[C@]12CCC(=O)N1[C@H](C(=O)O)Cc1c2[nH]c2ccccc12	> 100 µM	> 100 µM	> 100 µM	> 100 µM	> 100 µM	> 100 µM	> 100 µM	> 100 µM	> 100 µM	> 100 µM
Cc1nc2ccccc2n1CCc1nc2ccccc2[nH]1	> 100 µM	> 100 µM	> 100 µM	> 100 µM	> 100 µM	> 100 µM	> 100 µM	> 100 µM	> 100 µM	> 100 µM
Cc1cc(C(C)(C)C)c(OCCCN2CCOCC2)c(C(C)(C)C)c1	31.9 µM	31.3 µM	38.6 µM	33.4 µM	34.5 µM	30.5 µM	33.1 µM	35 µM	30.3 µM	31.9 µM
O=[N+]([O-])c1ccc(-c2nc3ccccc3o2)cc1	> 100 µM	> 100 µM	> 100 µM	> 100 µM	> 100 µM	> 100 µM	> 100 µM	> 100 µM	> 100 µM	> 100 µM
CN(C)CCCN1C(=O)N(CCCN(C)C)c2c3cc(O)ccc3nc3c([N+](=O)[O-])ccc1c23	25.1 µM	29.8 µM	52.7 µM	40.3 µM	78.2 µM	> 100 µM	> 100 µM	33.9 µM	26.8 µM	27.2 µM
O=C(NNc1ccc([N+](=O)[O-])cc1)C1OC(CO)C(O)C1O (centres undefined)	> 100 µM	> 100 µM	> 100 µM	> 100 µM	> 100 µM	> 100 µM	> 100 µM	> 100 µM	> 100 µM	> 100 µM
C[C@@H](CC(O)C(O)C(C)(C)O)C1CCC23CC12CCC1[C@@]2(C)CCC(=O)C(C)(C)C2CC(OC2OC(CO)C(O)C(O)C2O)[C@]13C (some centres undefined)	> 10 µM	> 10 µM	> 10 µM	> 10 µM	> 10 µM	> 10 µM	> 10 µM	> 10 µM	> 10 µM	> 10 µM
Cc1nc(-c2ccc(Cl)cc2)cn2c1nc1ccccc12	> 100 µM	> 100 µM	> 100 µM	> 100 µM	> 100 µM	> 100 µM	> 100 µM	> 100 µM	> 100 µM	> 100 µM

— PubChem BioAssay (NCI)
